Test results as given in US6459001B1 (Aventis Pharma S.A., priority 1997, dated 2002).

How the values were obtained:
human αvβ3 receptor = human αvβ3 receptor (Homo sapiens, UniProt P05106+P06756); assay: Displacement of the binding Vitronectin/Vitronectin receptor (αvβ3), competition test; settings: human vitronectin coated plates, 3 hours at ambient temperature, read-out: Competition test Vn/VR (αvβ3) binding IC50 en
Method: 1—Study of the Products of the Invention on the Displacement of the Binding: Vitronectin/Vitronectin Receptor (αvβ3) […]
MaxiSorp 96-well plates are coated overnight at 4° C., with 100 μl of human Vitronectin (cf Yatohgo et al. Cell., Structure and fraction 13: 281-292 (1988)) at 2 μg/ml, (Dilution in coating buffer).
The next day, the wells are emptied and the ligands (Vitronectin) are then fixed (see fixing buffer) for one hour at ambient temperature under gentle agitation.
The wells are washed six times (see washing buffer), then the following are added to each well and in this order:
40 μl of incubation buffer, 10 μl of the dilution of the product to be tested, (the products are diluted in a 50/50 mixture of DMSO-H2O) 50 μl of human αvβ3 receptor (cf Pytela et al. Methods Enzymol (1987) 144:475) (dilution in incubation buffer, to be adapted according to the receptor batch and according to the ligand).
The ligand, the human αvβ3 receptor and the products to be studied are incubated for 3 hours at ambient temperature under gentle agitation.
The wells are again washed six times, then incubated for 2 hours at ambient temperature under gentle agitation, in the presence of 100 μl of anti-receptor, 4B12-HRP antibody coupled to a peroxidase (the 4B12-HRP antibody is diluted in an incubation buffer. The dilution is to be adapted according to the receptor batch).
This kit contains a bottle A of substrate (3,3′,5,5′-tetramethylbenzidine at 0.4 g/l) and a bottle B (H2O2 at 0.02% in a citrate/citric acid buffer). Extemporaneously, a volume of A is mixed with a volume of B, then the reaction mixture is distributed at a rate of 100 μl/well. The enzymatic reaction develops over […] for Vitronectin/αvβ3, then its development is stopped by the addition of 100 μl of 1M phosphoric acid. The optical density is measured at 450 nm. […]
coating buffer: Carbonate 0.05 M, NaOH pH 9.6 fixing buffer: PBS containing 0.5% BSA (pH 7.4) washing buffer: PBS containing 0.05% Tween 20 (pH 7.4)
Expression of the Results:
The following curve is traced: the percentage of binding of the human vitronectin as a function of the logarithm of the concentration of each product tested.
For each product the IC50 is determined according to the following formula:
BO=Maximum binding in the absence of any product
Bmin=Minimum binding in the presence of the highest concentration of product.

[1] = system: bone resorption (skullcaps of new-born mice); assay: Test of mouse calvarium: bone resorption by release of 45Ca from skullcaps of new-born mice, ex-vivo; settings: Mus musculus, inhibition of bone resorption (45Ca release) in half-calvaria, 48 hours contact, read-out: Mouse cavarium % inhibition at 10 μM
Text: 2—Test of Mouse Calvarium
Injection of a tracer dose of ^45Ca (CaCl2) to gestating female mice in order to study bone resorption by measuring the release of ^45Ca from the skullcaps of new-born mice.
Determination of the activity of a molecule on bone resorption, ex-vivo study.
Vehicle: DMSO, H2O/BSA (0.1%)
Dose: Variable ([…] in screening).
Echistatin (ref. H-9010-BACHEM)
^45Ca in the form of an aqueous solution of CaCl2—ref. CES3 AMERSHAM or NEZ-013 NEN.
Vehicle: Physiological serum
Dose: 25 μCi/mouse/0.4 ml
CMRL 1066 with phenol red (ref. 041-01535 M/GIBCO) supplemented by 0.1% BSA and penicillin/streptomycin.
1) Injection of ^45Ca to Gestating Mice (OF1, Strain: Swiss)
a) Preparation of the Labelled Solution:
190 μl of the mother solution of calcium at 2 mci/ml is added to 6 ml of physiological serum.
On the 17th day of gestation the mice receive 400 μl of this solution by intravenous route, that is 25 μCi/mouse.
2) Removal of the Tissue (Skullcap (Calvarium))
Six days after their birth the new-born mice are decapitated, then the head is recovered, and the skin is incised from the nape to the front. The skullcap is removed by cutting it out with scissors, and using a punch two exactly identical half-calvaria (one on the left and one on the right) are cut from the parietal bones. One will serve as the control, the other will be used to test the product to be studied.
Each half calvarium is placed in a well of a 24-well plate, containing 1 ml of medium, on a 100 μm polyethylene and nylex support, in order to avoid all contact with the bottom of the well.
After 24 hours, the polyethylene supports carrying the calvaria are transferred into new 24-well plates containing 1 ml of fresh medium and the products to be tested or their solvents. 200 μl of medium from the first plates is removed from each well and a first count of the radioactivity is carried out (value A).
This change of medium allows all the mechanical stress associated with the removal to be eliminated.
48 hours after putting the tissues in contact with the studied products, 200 μl of medium is removed from each well and counted (value B), so as to determine the quantity of ^45Ca released from the medium during the so-called resorption phase.
The calvarium is then completely demineralized in 1 ml of 5% trichloracetic acid and after digestion, 200 μl is also removed and counted so as to determine the quantity of calcium remaining in the bone (value C). Expression of the results
A % of bone resorption is calculated for each half-calvarium (each well) in the following manner:
% bone resorption=dpm B/dpm (A+B+C)×100
The sum of dpm A+B+C represents the quantity of ^45Ca incorporated in each bone part on the day of removal.
In order to measure the effect of a product, the ratio of the percentage of bone resorption of the treated well and of the corresponding control well is calculated for each point. The value found called the resorption index is comprised between 0 and 1 if the product inhibits bone resorption and is >1 if the product potentializes it. The average of the 6 indices (since there are 6 points/group) of each product is then calculated which gives one index/product. If this index is subtracted from the value 1, the inhibitory power of the product is obtained, which can be expressed as a percentage.
Furthermore a statistical test (Student T-test) is carried out by comparing point/point the individual resorption indices.

Q: Which IC50 (human αvβ3 receptor) does the source give for `COc1c(OCCCC(=O)O)cc2c(c1OC)C1=C(CCC1)C(=NNC1=NCCCN1)CC2` [EX. 12, 4-((9,10-Dimethoxy-4-((1,4,5,6-tetrahydro-2-pyrimidinyl)hydrazono)-1,2,3,4,5,6-hexahydro-8-benz(e)-azulenyl)oxy)-butanoic Acid] here?
A: 350 nM

Q: And the inhibition at 10 µM [1]?
A: 12%

Q: What does the source list for `O=C(NC(CCOc1ccc2c(c1)CCC(=NNC1=NCCN1)C1=C2CCC1)C(=O)O)OCc1ccccc1` (racemic) [EX. 25, O-[4-[(4,5-Dihydro-1H-imidazol-2-yl)hydrazono)-1,2,3,4,5,6-hexahydro-8-benz(e)azulenyl]-N-[(phenylmethoxy)-carbonyl]-DL-homoserine]?
A: IC50 (human αvβ3 receptor): 13 nM; inhibition at 10 µM [1]: 26%
